According to the NIST ThermoML archive (doi:10.1021/je0201976):
± gives the expanded uncertainty stated by the source.

Settings: Liquid

COCC(F)(F)C(F)(F)C(F)(F)C(F)F [1,1,2,2,3,3,4,4-octafluoro-5-methoxypentane]
Settings | Critical pressure [kPa] | Critical temperature [K] | vapor or sublimation pressure [kPa]
– | 2392 ± 19 | 546.1 ± 0.31 | –
301.49 K | – | – | 2.3 ± 1.1
312.42 K | – | – | 4 ± 1.1
322.54 K | – | – | 6.9 ± 1.1
332.62 K | – | – | 11.2 ± 1.2
342.67 K | – | – | 18.1 ± 1.4
352.72 K | – | – | 29.1 ± 1.8
362.75 K | – | – | 48 ± 2.6
372.79 K | – | – | 74.3 ± 3.9
382.81 K | – | – | 106.8 ± 5.5
392.83 K | – | – | 147.1 ± 7.5
402.86 K | – | – | 193.8 ± 9.9
412.89 K | – | – | 250.4 ± 13
422.92 K | – | – | 320.1 ± 16
432.94 K | – | – | 395.7 ± 20
442.97 K | – | – | 482.8 ± 24
452.99 K | – | – | 585.8 ± 29
463 K | – | – | 710.7 ± 36
473.04 K | – | – | 849.5 ± 42
483.07 K | – | – | 1006.9 ± 50
492.89 K | – | – | 1184.9 ± 59
502.72 K | – | – | 1385.9 ± 69
512.54 K | – | – | 1615.9 ± 80
522.34 K | – | – | 1873.5 ± 93
532.17 K | – | – | 2168.7 ± 110
541.94 K | – | – | 2471.9 ± 120
545.63 K | – | – | 2602.5 ± 130

COC(F)(F)C(F)(F)C(F)F [1,1,2,2,3,3-hexafluoro-1-methoxypropane]
Settings | Critical pressure [kPa] | Critical temperature [K] | vapor or sublimation pressure [kPa]
– | 3032 ± 100 | 486.98 ± 0.31 | –
301.9 K | – | – | 22.4 ± 1.2
312.59 K | – | – | 35 ± 1.3
322.63 K | – | – | 52.9 ± 1.6
332.69 K | – | – | 77 ± 2.1
337.67 K | – | – | 92.1 ± 2.4
342.69 K | – | – | 109.2 ± 2.8
352.73 K | – | – | 151.1 ± 3.9
362.74 K | – | – | 204.9 ± 5.2
372.78 K | – | – | 273.4 ± 6.9
382.81 K | – | – | 357.4 ± 9
392.84 K | – | – | 458.8 ± 12
402.87 K | – | – | 581.1 ± 14
412.87 K | – | – | 726.2 ± 18
422.91 K | – | – | 898.8 ± 22
432.94 K | – | – | 1100.7 ± 27
442.97 K | – | – | 1333.7 ± 33
452.99 K | – | – | 1605.1 ± 40
463.02 K | – | – | 1921.8 ± 48
473.04 K | – | – | 2276.4 ± 57
480.12 K | – | – | 2562.9 ± 64

FC(F)COC(F)(F)C(F)F [1,1,2,2-tetrafluoro-2-(2,2-difluoroethoxy)ethane]
Settings | Critical density [kg/m3] | Critical pressure [kPa] | Critical temperature [K] | vapor or sublimation pressure [kPa]
– | 520 ± 2 | – | – | –
300.91 K | – | – | – | 12.8 ± 1
322.65 K | – | – | – | 33.9 ± 1
332.67 K | – | – | – | 50.8 ± 1
342.69 K | – | – | – | 75 ± 1
352.73 K | – | – | – | 106.1 ± 1.1
362.73 K | – | – | – | 147.5 ± 1.1
372.78 K | – | – | – | 202.5 ± 1.2
382.8 K | – | – | – | 268.1 ± 1.3
392.83 K | – | – | – | 351.4 ± 1.4
402.87 K | – | – | – | 453.5 ± 1.6
412.89 K | – | – | – | 576.7 ± 1.9
422.92 K | – | – | – | 723.9 ± 2.3
432.95 K | – | – | – | 898.2 ± 2.8
442.97 K | – | – | – | 1102.4 ± 3.4
453 K | – | – | – | 1341.6 ± 4.2
463.02 K | – | – | – | 1615.4 ± 5
473.05 K | – | – | – | 1931 ± 6
482.09 K | – | – | – | 2256.7 ± 7
491.9 K | – | – | – | 2658.1 ± 8.3
497.81 K | – | – | – | 2932.7 ± 9.1
501.3 K | – | – | – | 3101.6 ± 9.7
Direct measurement | – | 3090 ± 9 | – | –
Visual observation in an unstirred cell | – | – | 501.08 ± 0.08 | –

FC(F)C(F)(F)COC(F)(F)C(F)F [1,1,2,2-tetrafluoro-3-(1,1,2,2-tetrafluoroethoxy)propane]
Settings | Critical density [kg/m3] | Critical pressure [kPa] | Critical temperature [K] | vapor or sublimation pressure [kPa]
– | 530 ± 2 | – | – | –
322.65 K | – | – | – | 20.9 ± 1
332.65 K | – | – | – | 31.6 ± 1
342.71 K | – | – | – | 46.8 ± 1
352.73 K | – | – | – | 67.9 ± 1
362.77 K | – | – | – | 95.4 ± 1
372.77 K | – | – | – | 131.3 ± 1.1
382.81 K | – | – | – | 177.3 ± 1.1
402.88 K | – | – | – | 308.1 ± 1.3
412.91 K | – | – | – | 395.4 ± 1.5
422.94 K | – | – | – | 500.2 ± 1.8
432.96 K | – | – | – | 628.3 ± 2.1
442.99 K | – | – | – | 773.9 ± 2.4
453.01 K | – | – | – | 946.9 ± 3
463.24 K | – | – | – | 1151.4 ± 3.6
473.06 K | – | – | – | 1378.5 ± 4.3
481.12 K | – | – | – | 1591 ± 5
491.9 K | – | – | – | 1907.6 ± 6
501.73 K | – | – | – | 2245.2 ± 7
509.65 K | – | – | – | 2552.5 ± 8
Direct measurement | – | 2581 ± 5 | – | –
Visual observation in an unstirred cell | – | – | 510.07 ± 0.08 | –

COCC(F)(F)C(F)F [1,1,2,2-tetrafluoro-3-methoxypropane]
Settings | Critical density [kg/m3] | Critical pressure [kPa] | Critical temperature [K] | vapor or sublimation pressure [kPa]
– | 453 ± 2 | – | – | –
342.68 K | – | – | – | 84.8 ± 1
347.65 K | – | – | – | 101.2 ± 1.1
352.72 K | – | – | – | 120.5 ± 1.1
362.75 K | – | – | – | 166.1 ± 1.1
372.76 K | – | – | – | 222.7 ± 1.2
382.79 K | – | – | – | 293.4 ± 1.3
392.8 K | – | – | – | 379.9 ± 1.5
402.8 K | – | – | – | 484.3 ± 1.8
412.88 K | – | – | – | 610.7 ± 2.1
422.91 K | – | – | – | 758.8 ± 2.5
432.93 K | – | – | – | 934.8 ± 3
442.97 K | – | – | – | 1138.1 ± 3.7
452.99 K | – | – | – | 1373.5 ± 4.5
463.01 K | – | – | – | 1642.8 ± 5.3
473.02 K | – | – | – | 1952 ± 6.3
480.13 K | – | – | – | 2197.3 ± 7.1
489.95 K | – | – | – | 2573.3 ± 8.3
499.77 K | – | – | – | 3005.9 ± 9.7
505.06 K | – | – | – | 3262.8 ± 11
505.35 K | – | – | – | 3278.9 ± 11
Direct measurement | – | 3279 ± 6 | – | –
Visual observation in an unstirred cell | – | – | 505.35 ± 0.13 | –

CC(F)(F)Cl [1-chloro-1,1-difluoroethane]
Settings | Critical density [kg/m3] | Critical pressure [kPa] | Critical temperature [K]
– | 442 ± 2 | – | –
Direct measurement | – | 4054 ± 7 | –
Visual observation in an unstirred cell | – | – | 410.3 ± 0.07

CCOC(F)(F)C(F)(F)C(F)(F)C(F)(F)F [1-ethoxy-1,1,2,2,3,3,4,4,4-nonafluorobutane]
Settings | Critical density [kg/m3] | Critical pressure [kPa] | Critical temperature [K] | vapor or sublimation pressure [kPa]
– | 518 ± 2 | – | – | –
309.21 K | – | – | – | 22.5 ± 1
332.68 K | – | – | – | 57 ± 1
342.71 K | – | – | – | 80.7 ± 1
347.73 K | – | – | – | 95.4 ± 1
382.82 K | – | – | – | 271.9 ± 1.3
392.84 K | – | – | – | 349.2 ± 1.4
402.87 K | – | – | – | 443.3 ± 1.6
412.66 K | – | – | – | 553.4 ± 1.9
422.65 K | – | – | – | 684.8 ± 2.2
432.89 K | – | – | – | 835.3 ± 2.6
443.2 K | – | – | – | 1011.6 ± 3.2
453.14 K | – | – | – | 1212.9 ± 3.8
473.46 K | – | – | – | 1720.7 ± 5.4
Direct measurement | – | 1976 ± 5 | – | –
Visual observation in an unstirred cell | – | – | 482.02 ± 0.11 | –

FC(F)C(F)(F)OCC(F)(F)F [2,2,2-trifluoroethyl 1,1,2,2-tetrafluoroethyl ether]
Settings | Critical density [kg/m3] | Critical pressure [kPa] | Critical temperature [K] | vapor or sublimation pressure [kPa]
– | 541 ± 2 | – | – | –
297.29 K | – | – | – | 27.8 ± 1
313.67 K | – | – | – | 55.7 ± 1
322.82 K | – | – | – | 79.9 ± 1
332.69 K | – | – | – | 114.5 ± 1.1
342.88 K | – | – | – | 162 ± 1.1
352.74 K | – | – | – | 221.2 ± 1.2
362.7 K | – | – | – | 296.8 ± 1.3
372.69 K | – | – | – | 391.4 ± 1.5
382.81 K | – | – | – | 510.6 ± 1.8
392.83 K | – | – | – | 651.7 ± 2.1
402.83 K | – | – | – | 821.2 ± 2.6
413.9 K | – | – | – | 1046.2 ± 3.3
422.92 K | – | – | – | 1260.9 ± 3.9
432.91 K | – | – | – | 1536.4 ± 4.8
442.98 K | – | – | – | 1859.3 ± 5.8
452.95 K | – | – | – | 2231 ± 6.9
462.99 K | – | – | – | 2668.5 ± 8.3
463.89 K | – | – | – | 2713.3 ± 8.4
463.94 K | – | – | – | 2715.8 ± 8.4
Direct measurement | – | 2713 ± 4 | – | –
Visual observation in an unstirred cell | – | – | 463.89 ± 0.07 | –

FC(F)OCC(F)(F)C(F)(F)F [difluoromethyl 2,2,3,3,3-pentafluoropropyl ether]
Settings | Critical density [kg/m3] | Critical pressure [kPa] | Critical temperature [K] | vapor or sublimation pressure [kPa]
– | 576 ± 2 | – | – | –
298.42 K | – | – | – | 44.2 ± 1
322.49 K | – | – | – | 111.5 ± 1.1
332.63 K | – | – | – | 157.2 ± 1.1
342.7 K | – | – | – | 216.6 ± 1.2
352.65 K | – | – | – | 290.7 ± 1.3
362.73 K | – | – | – | 384.1 ± 1.5
372.78 K | – | – | – | 498.1 ± 1.8
382.79 K | – | – | – | 637.5 ± 2.1
392.82 K | – | – | – | 807.7 ± 2.5
402.86 K | – | – | – | 1006.3 ± 3.2
412.9 K | – | – | – | 1244.5 ± 3.9
422.93 K | – | – | – | 1524.9 ± 4.8
432.96 K | – | – | – | 1858.4 ± 5.8
442.98 K | – | – | – | 2203.3 ± 6.9
454.99 K | – | – | – | 2769 ± 8.7
455.27 K | – | – | – | 2796.4 ± 8.8
Direct measurement | – | 2773 ± 9 | – | –
Visual observation in an unstirred cell | – | – | 455.1 ± 0.1 | –
